The values that follow are results of earlier work, collected in publication PMC8875809, “Comparative venomic profiles of three spiders of the genus Phoneutria” (The Journal of Venomous Animals and Toxins Including …, 2022).

Entries after “also recorded” stand apart in the source; their conditions may differ.

One data set deals with sodium channels. The note with it: ref [78]. An excerpt: PnTx2-6 (MW 5288 Da) contains 48 amino acids, of which 10 are cysteine residues. […] Due to such effects on penile erection, PnTx2-6 has shown good perspectives for clinical application on erectile dysfunction treatment. […] Although we have not assayed Tx2-6 isoforms from P. eickstedtae (Pe-V) and P. pertyi (Pp- V), we believe that them has similar effects on sodium channels like PnTx2-6 isoform and similar results would be expected, because these toxins are homologous. The species P. eickstedtae and P. pertyi are rarer spiders. In addition, since Tx1 is the most abundant toxin, only this molecule was used for electrophysiology assays. We believe that our data, as they are, already bring the news to arouse ...

In a further data set the test system is penile erection. An excerpt: PhTx2 toxins inhibit sodium channel inactivation. These toxins are the main responsible for the strongest neurotoxic effects of venom. […] These toxins have been explored as models for the development of a potential drug for the treatment of erectile dysfunction. || PnTx2-6 (MW 5288 Da) contains 48 amino acids, of which 10 are cysteine residues. […] Due to such effects on penile erection, PnTx2-6 has shown good perspectives for clinical application on erectile dysfunction treatment. PnTx2-6 modulates the nitric oxide (NO)/cyclic GMP pathwa ...

The test system of data set [1] is nitric oxide (NO)/cyclic GMP pathway. The note with it: ref [24],[35],[36]. An excerpt: PnTx2-6 (MW 5288 Da) contains 48 amino acids, of which 10 are cysteine residues. […] Due to such effects on penile erection, PnTx2-6 has shown good perspectives for clinical application on erectile dysfunction treatment. PnTx2-6 modulates the nitric oxide (NO)/cyclic GMP pathwa ...

For “PnTx2-6: contains 48 amino acids, of which 10 are cysteine residues; P. nigriventer toxin (P29425) (ATCAGQDQPCKETCDCCGERGECVCGGPCICRQGYFWIAWYKLANCKK; UniProt P29425 35-82, looked up)”, in the data set on sodium channels, the “effect on sodium channel inactivation” value is given as “modifies the kinetics of sodium channel inactivation; also recorded: decreases sodium channel inactivation” and the “voltage dependence of activation / sodium influx” value is reported as “shifting the voltage dependence of activation towards more hyperpolarized potentials, thus increasing sodium influx”. The priapism result in the data set on penile erection (ref [21],[24]) is given as “found to induce priapism”. In addition, the “penile erection in envenomation” value in the data set on penile erection (ref [29]) is “responsible for the penile erection”. The “NO release in corpus cavernosum tissue” value in data set [1] was “increased release of NO in the corpus cavernosum tissue”.
